Laboratory results from ChEMBL document CHEMBL1154484, “A QSAR study for the cytotoxic activities of taxoids against macrophage (MPhi)-like cells” (Eur J Med Chem, 2009).

Legend:
[1] = Cytotoxicity against mouse J774.1 cells; type: cell-based
[2] = Cytotoxicity against mouse J7.DEF.3 cells; type: cell-based

SMILES | log(1/C) [1] | log(1/C) [2]
CC(=O)O[C@H]1C(=O)[C@@]2(C)[C@H]([C@H](OC(=O)c3ccccc3)[C@]3(O)C[C@H](OC(=O)[C@H](O)[C@@H](NC(=O)c4ccc(Cl)cc4)c4ccccc4)C(C)=C1C3(C)C)[C@]1(OC(C)=O)CO[C@@H]1C[C@@H]2O | 7.52 | 7.59
CC(=O)O[C@H]1C(=O)[C@@]2(C)[C@H]([C@H](OC(=O)c3ccccc3)[C@]3(O)C[C@H](OC(=O)[C@H](O)[C@@H](NC(=O)c4ccc(C)cc4)c4ccccc4)C(C)=C1C3(C)C)[C@]1(OC(C)=O)CO[C@@H]1C[C@@H]2O | 7.77 | 7.82
CC(=O)O[C@H]1C(=O)[C@@]2(C)[C@H]([C@H](OC(=O)c3ccccc3)[C@]3(O)C[C@H](OC(=O)[C@H](O)[C@@H](NC(=O)c4ccc(C(C)(C)C)cc4)c4ccccc4)C(C)=C1C3(C)C)[C@]1(OC(C)=O)CO[C@@H]1C[C@@H]2O | 7.62 | 7.6
CC(=O)O[C@H]1C(=O)[C@@]2(C)[C@H]([C@H](OC(=O)c3ccccc3)[C@]3(O)C[C@H](OC(=O)[C@H](O)[C@@H](NC(=O)c4cccc5ccccc45)c4ccccc4)C(C)=C1C3(C)C)[C@]1(OC(C)=O)CO[C@@H]1C[C@@H]2O | 7.17 | 6.43
COc1ccc(C(=O)N[C@@H](c2ccccc2)[C@@H](O)C(=O)O[C@H]2C[C@@]3(O)[C@@H](OC(=O)c4ccccc4)[C@@H]4[C@]5(OC(C)=O)CO[C@@H]5C[C@H](O)[C@@]4(C)C(=O)[C@H](OC(C)=O)C(=C2C)C3(C)C)c(OC)c1 | 7.12 | 7.08
CC(=O)O[C@H]1C(=O)[C@@]2(C)[C@H]([C@H](OC(=O)c3ccccc3)[C@]3(O)C[C@H](OC(=O)[C@H](O)[C@@H](NC(=O)Cc4ccccc4)c4ccccc4)C(C)=C1C3(C)C)[C@]1(OC(C)=O)CO[C@@H]1C[C@@H]2O | 7.11 | 7.32
CC(=O)O[C@H]1C(=O)[C@@]2(C)[C@H]([C@H](OC(=O)c3ccccc3)[C@]3(O)C[C@H](OC(=O)[C@H](O)[C@@H](NC(=O)c4ccc(F)cc4)c4ccccc4)C(C)=C1C3(C)C)[C@]1(OC(C)=O)CO[C@@H]1C[C@@H]2O | 7.68 | 7.77
CC(=O)O[C@H]1C(=O)[C@@]2(C)[C@H]([C@H](OC(=O)c3ccccc3)[C@]3(O)C[C@H](OC(=O)[C@H](O)[C@@H](NC(=O)c4ccc(F)cc4F)c4ccccc4)C(C)=C1C3(C)C)[C@]1(OC(C)=O)CO[C@@H]1C[C@@H]2O | 7.59 | 7.6
CC(=O)O[C@H]1C(=O)[C@@]2(C)[C@H]([C@H](OC(=O)c3ccccc3)[C@]3(O)C[C@H](OC(=O)[C@H](O)[C@@H](NC(=O)c4ccccc4)c4ccccc4)C(C)=C1C3(C)C)[C@]1(OC(C)=O)CO[C@@H]1C[C@@H]2O [PACLITAXEL] | 7.48 | 7.52
CCCc1ccc(C(=O)N[C@@H](c2ccccc2)[C@@H](O)C(=O)O[C@H]2C[C@@]3(O)[C@@H](OC(=O)c4ccccc4)[C@@H]4[C@]5(OC(C)=O)CO[C@@H]5C[C@H](O)[C@@]4(C)C(=O)[C@H](OC(C)=O)C(=C2C)C3(C)C)cc1 | 7.74 | 7.77
CC(=O)O[C@H]1C(=O)[C@@]2(C)[C@H]([C@H](OC(=O)c3ccccc3)[C@]3(O)C[C@H](OC(=O)[C@H](O)[C@@H](NC(=O)c4ccco4)c4ccccc4)C(C)=C1C3(C)C)[C@]1(OC(C)=O)CO[C@@H]1C[C@@H]2O | 8.3 | 6.7
CC(=O)O[C@@]12CO[C@@H]1C[C@H](O)[C@@]1(C)C(=O)[C@H](O)C3=C(C)[C@@H](OC(=O)[C@H](O)[C@@H](NC(=O)OC(C)(C)C)c4ccccc4)C[C@@](O)([C@@H](OC(=O)c4ccccc4)[C@H]21)C3(C)C.O.O.O [DOCETAXEL] | 8.24 | 8.14
COc1ccc(C(=O)N[C@@H](c2ccccc2)[C@@H](O)C(=O)O[C@H]2C[C@@]3(O)[C@@H](OC(=O)c4ccccc4)[C@@H]4[C@]5(OC(C)=O)CO[C@@H]5C[C@H](O)[C@@]4(C)C(=O)[C@H](OC(C)=O)C(=C2C)C3(C)C)cc1 | 7.23 | 7.43
CC(=O)O[C@H]1C(=O)[C@@]2(C)[C@H]([C@H](OC(=O)c3ccccc3)[C@]3(O)C[C@H](OC(=O)[C@H](O)[C@@H](NC(=O)/C=C/c4ccccc4)c4ccccc4)C(C)=C1C3(C)C)[C@]1(OC(C)=O)CO[C@@H]1C[C@@H]2O | 7.52 | 7.11
CC(=O)O[C@H]1C(=O)[C@@]2(C)[C@H]([C@H](OC(=O)c3ccccc3)[C@]3(O)C[C@H](OC(=O)[C@H](O)[C@@H](NC(=O)c4ccc5ccccc5c4)c4ccccc4)C(C)=C1C3(C)C)[C@]1(OC(C)=O)CO[C@@H]1C[C@@H]2O | 7.68 | 7.26
COc1ccc(C(=O)N[C@@H](c2ccccc2)[C@@H](O)C(=O)O[C@H]2C[C@@]3(O)[C@@H](OC(=O)c4ccccc4)[C@@H]4[C@]5(OC(C)=O)CO[C@@H]5C[C@H](O)[C@@]4(C)C(=O)[C@H](OC(C)=O)C(=C2C)C3(C)C)cc1OC | 7.21 | 7.24
CC(=O)O[C@H]1C(=O)[C@@]2(C)[C@H]([C@H](OC(=O)c3ccccc3)[C@]3(O)C[C@H](OC(=O)[C@H](O)[C@@H](NC(=O)c4ccc(-c5ccccc5)cc4)c4ccccc4)C(C)=C1C3(C)C)[C@]1(OC(C)=O)CO[C@@H]1C[C@@H]2O | 7.31 | 6.85
CC(=O)O[C@H]1C(=O)[C@@]2(C)[C@H]([C@H](OC(=O)c3ccccc3)[C@]3(O)C[C@H](OC(=O)[C@H](O)[C@@H](NC(=O)c4cccs4)c4ccccc4)C(C)=C1C3(C)C)[C@]1(OC(C)=O)CO[C@@H]1C[C@@H]2O | 8.7 | 7.8
CCc1ccc(C(=O)N[C@@H](c2ccccc2)[C@@H](O)C(=O)O[C@H]2C[C@@]3(O)[C@@H](OC(=O)c4ccccc4)[C@@H]4[C@]5(OC(C)=O)CO[C@@H]5C[C@H](O)[C@@]4(C)C(=O)[C@H](OC(C)=O)C(=C2C)C3(C)C)cc1 | 7.82 | 7.85
